# Reference: PubChem BioAssay (NCI)
# Where “and” joins values, the source holds several entries; their conditions need not be identical. Identical values can stand only once.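 The compound was tested at five concentrations on cells cultured in 96-well plates, with a 48-hour exposure period. Abbreviation: GI50, concentration required for 50% inhibition of growth. TGI denotes the concentration required for complete inhibition of growth.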
# Experiments:
# Test in all cases: inhibition of tumour cell growth, NCI panel, 48 h
# NCI-H522 lung = tested on: NCI-H522 lung
# SNB-75 CNS = tested on: SNB-75 CNS
# HL-60(TB) leukemia = tested on: HL-60(TB) leukemia
# HCC-2998 colon = tested on: HCC-2998 colon
# SNB-19 CNS = tested on: SNB-19 CNS
# SF-268 CNS = tested on: SF-268 CNS
# NCI-H226 lung = tested on: NCI-H226 lung
# SK-MEL-2 melanoma = tested on: SK-MEL-2 melanoma
# HOP-62 NSCLC = tested on: HOP-62 NSCLC
# CAKI-1 renal = tested on: CAKI-1 renal
Compound,GI50 (NCI-H522 lung),TGI (NCI-H522 lung) [µM],GI50 (SNB-75 CNS),TGI (SNB-75 CNS),GI50 (HL-60(TB) leukemia),TGI (HL-60(TB) leukemia) [µM],GI50 (HCC-2998 colon),TGI (HCC-2998 colon) [µM],GI50 (SNB-19 CNS),TGI (SNB-19 CNS) [µM],GI50 (SF-268 CNS),TGI (SF-268 CNS) [µM],GI50 (NCI-H226 lung),TGI (NCI-H226 lung) [µM],GI50 (SK-MEL-2 melanoma),TGI (SK-MEL-2 melanoma),GI50 (HOP-62 NSCLC),TGI (HOP-62 NSCLC),GI50 (CAKI-1 renal),TGI (CAKI-1 renal)
Cc1ccc(C)c2c1C(O)(C#Cc1ccccc1)c1ccccc1C2(O)C#Cc1ccccc1 (stereo not drawn),4.55 µM,> 100,4.04 µM,> 100 µM,4.04 µM,> 100,5.56 µM,> 100,3.74 µM,> 100,3.65 µM,> 100,1.9 µM,9.46,2.98 µM,11.5 µM,5.88 µM,> 100 µM,2.38 µM,> 30.7 µM
S=C(Nc1ccc(Br)cc1)Nc1ccc(Br)cc1,2.92 µM,98.6,98.7 µM,> 100 µM,5.79 µM,> 100,5.04 µM,> 100,17.2 µM,> 100,67.8 µM,> 100,> 100 µM,> 100,7.93 µM,> 100 µM,83.9 µM,> 100 µM,4 µM,> 100 µM
COc1ccc(C(=O)/C=C/c2ccc(C)cc2)cc1OC,11.1 µM,26.4,8.93 µM,21.3 µM,23.2 µM,62.4,14.4 µM,27.4,12.8 µM,25.5,11.7 µM,24.4,13.5 µM,31.5,15.9 µM,40.1 µM,14.6 µM,27.8 µM,18.1 µM,52.8 µM
CCCNNC(=O)/C=C/c1ccc(CNCCc2c(C)[nH]c3ccccc23)cc1,0.0447 µM,4.19,0.0753 µM,2.94 µM,0.0123 µM,3.96,0.0449 µM,0.115,0.0768 µM,2.1,0.0744 µM,0.951,0.0291 µM,0.131,0.0342 µM,3.68 µM,0.031 µM,0.785 µM,0.0369 µM,0.123 µM
O=S(=O)(Nc1ccccc1Cl)c1ccc(-c2cnc(C3CC3)o2)cc1,0.26 µM,15.6,0.139 µM,0.599 µM,0.274 µM,0.886,2.54 µM,33.3,0.642 µM,> 100,12.4 µM,> 100,4.84 µM,> 68.4,0.64 µM,> 100 µM,0.501 µM,> 100 µM,0.321 µM,82 µM
C=C1C(O)C2C(=C(CCc3ccccc3)C13CC3)C(=O)C(C)(CO)C2O (stereo not drawn),> 100 µM,> 100,> 100 µM,> 100 µM,81.9 µM,> 100,> 100 µM,> 100,> 100 µM,> 100,> 100 µM,> 100,> 100 µM,> 100,> 100 µM,> 100 µM,> 100 µM,> 100 µM,> 100 µM,> 100 µM
COc1ccc(-c2cn[nH]c2-c2cc(OC)c3c(c2)OCO3)cc1,0.0555 µM,1.68,0.134 µM,0.707 µM,0.22 µM,0.771,0.649 µM,11.8,2.97 µM,54.6,0.854 µM,31,1.34 µM,22.3,0.265 µM,17.8 µM,0.309 µM,24.1 µM,0.262 µM,24.9 µM
Cn1cc(C2=C(c3cn(CCCCN)c4ccccc34)C(=O)NC2=O)c2ccccc21,> 25 µM,> 25,> 25 µM,> 25 µM,> 25 µM,> 25,> 25 µM,> 25,> 25 µM,> 25,> 25 µM,> 25,> 25 µM,> 25,> 25 µM,> 25 µM,> 25 µM,> 25 µM,> 25 µM,> 25 µM
CCCN(CCCC(NC(C)=O)C(=O)NCc1ccccc1)C(=O)N(CCCl)N=O (stereo not drawn),–,29.2,–,39.8 µM,–,30.6,–,26.4,–,> 84.9,–,42.6,–,40.1,–,43.9 µM,–,19.8 µM,–,62.4 µM
CCOC(=O)c1sc(-c2ccc(OS(=O)(=O)c3ccc(Br)s3)c(C=O)c2)nc1C,2.96 µM,10.5,1.6 µM,6.7 µM,3.66 µM,19.7,13.3 µM,29.3,3.17 µM,12,3.01 µM,13.2,3.82 µM,23.1,4.83 µM,27.8 µM,3.3 µM,12.5 µM,2.86 µM,14.5 µM
CC(C)CC(NC(=O)c1cccc(O)c1O)C(=O)NCc1cc(CNC(=O)C(CC(C)C)NC(=O)c2cccc(O)c2O)cc(CNC(=O)C(CC(C)C)NC(=O)c2cccc(O)c2O)c1 (stereo not drawn),–,16.8,–,45.9 µM,–,19.2,–,20.6,–,47.3,–,> 100,–,60.2,–,29 µM,–,52.8 µM,–,> 100 µM
Clc1nc(Cl)c2ncn(Cc3cccc(Cn4cnc5c(Cl)nc(Cl)nc54)c3)c2n1,2.9 µM,7.01,5.58 µM,22.6 µM,2.9 µM,82.8,2.38 µM,7.11,3.02 µM,13.7,13 µM,31.5,4.76 µM,26.8,2.79 µM,7.72 µM,4.97 µM,18 µM,12 µM,26.3 µM
FC(F)c1nc2ccccc2n1-c1nc(N2CCOCC2)nc(N2CCOCC2)n1,0.222 µM and 0.295 µM,2.69,0.0257 µM and 0.0295 µM,0.403 µM and 0.481 µM,0.153 µM and 0.351 µM,> 100,0.497 µM and 0.807 µM,–,1.28 µM and 1.74 µM,> 100,0.361 µM and 0.6 µM,> 100,0.249 µM and 0.452 µM,–,0.519 µM and 1.08 µM,2.79 µM and 14.3 µM,0.495 µM and 1.1 µM,5.36 µM and 15.7 µM,0.197 µM and 0.268 µM,4.25 µM and 2.35 µM
Clc1ccc(SC(/C=C/NNC2=NC(c3ccccc3)C(c3ccccc3)=NN2)c2ccccc2)cc1 (stereo not drawn),–,73.7,–,64.7 µM,–,41.9,–,44.3,–,> 100,–,78.1,–,62.7,–,40.7 µM,–,> 100 µM,–,54.1 µM
